Measured values as given in PMC8237569 (Proceedings of the National Academy of Sciences of the …, 2021).
In brackets after ≈: the same amount, converted by molar mass. Like-named read-outs stand apart in the source and are kept apart here.

What was measured:
[1] = tested on: F-ATP synthase; conditions: read-out: IC50 against F-ATP synthase; cited from earlier work
[2] = tested on: M. tuberculosis H37Rv (ATCC 27294), wt; assay: microbe, parasite or virus in culture; type: cell-based; conditions: Mycobacterium tuberculosis, ATCC27294|H37RV
[3] = tested on: NC1=NC2(CCCCC2)N(c2ccc(OCc3cn(CCCCOc4ccc5ccc(=O)oc5c4)nn3)cc2)C(N)=N1; assay: purified protein, by the assay type; conditions: pH 7.5

Compound | MIC50 [2] [nM] | other results
COc1nc2ccc(Br)cc2cc1[C@@H](c1ccccc1)[C@@](O)(CCN(C)C)c1cccc2ccccc12 [Bedaquiline] |  | IC50 [1]: 2.5 nM
NNC(=O)c1ccncc1 [INH, isoniazid] | 400 (≈ 0.0549 µg/mL) | 
Nc1ccc(C(=O)O)c(O)c1 [PAS, para-aminosalicylic acid] | 200 (≈ 0.0306 µg/mL) | 
O=[N+]([O-])c1cn2c(n1)OC[C@@H](OCc1ccc(OC(F)(F)F)cc1)C2 [PTM, pretomanid] | 200 (≈ 0.0719 µg/mL) | 
CO[C@H]1/C=C/O[C@@]2(C)Oc3c(C)c(O)c4c(O)c(c(/C=N/N5CCN(C)CC5)c(O)c4c3C2=O)NC(=O)/C(C)=C\C=C\[C@H](C)[C@H](O)[C@@H](C)[C@@H](O)[C@@H](C)[C@H](OC(C)=O)[C@@H]1C [RIF, rifampicin] |  | MIC50 ([2]; read-out: MIC50, RIF (nM)): 1.6 nM (≈ 0.00132 µg/mL)
Ddn (Rv3547) (Mycobacterium tuberculosis H37Rv) |  | Km [3]: 3.47 ± 0.51 µM
